Results as given in patent US20240148757A1, “USE OF DIHYDROOROTATE DEHYDROGENASE (DHODH) INHIBITORS TO TARGET FERROPTOSIS IN CANCER THERAPY” (BOARD OF REGENTS, THE UNIVERSITY OF TEXAS SYSTEM, priority 2021, published 2024).

Tests used:
Assay type in all cases: cell-based, human
[1] = system: GPX4 knockdown HT-1080 cells with DHODH deletion; experiment: Lipid peroxidation and ferroptosis in DHODH KO, GPX4 knockdown HT-1080 cells
Experimental: Knockout of DHODH, ACSL4 and COQ2 in human cell lines was performed using single guide RNAs (sgRNAs) and doxycycline (DOX)-inducible CRISPR-Cas9 expression system as described in our recent publication (Lee, H., et al., Nature cell biology 22, 225-234 (2020)). sgRNAs were cloned into the lentiviral lentiGuide vector. LentiGuide clones were transfected into HEK293T cells with psPAX2 packaging plasmid and pMD2.G expressing plasmid. Cells were infected with lentivirus with 0.8 μg/ml polybrene, selected with puromycin (1 μg/ml, InvivoGen), blasticidin (2 μg/ml, InvivoGen) or hygromycin B (2 μg/ml, InvivoGen) for 3 days and then single cells were sorted into 96-well plates. […]
Cells were seeded on 12-well plates and incubated overnight. […] Lipid peroxidation was assessed using the flow cytometer BD Accuri C6 with a 488 nm laser on an FL1 detector. A minimum of 10,000 single cells were analyzed per well.
Cell death was measured by propidium iodide (Roche) staining using a flow cytometer, as previously described (Dai, F., et al., Proc Natl Acad Sci USA 114, 3192-3197 (2017); Zhang, Y., et al., Cancer Res 80, 2243-2256 (2020)). […] A minimum of 10,000 single cells were analyzed per well and all experiments were carried out at least in triplicate.

GPX4^low NCI-H226 cells = experiment: Cell viability / cell death (ferroptosis) in NCI-H226 cells; settings: BQR; pretreatment Lip-1 or ZVF 10 μM, 24 hours
Experimental: Viable cells were measured using Cell Counting Kit-8 (CCK-8, Dojindo) as previously described (Koppula, P., Zhang, Y., Shi, J., Li, W. & Gan, B, J Biol Chem 292, 14240-14249 (2017); Liu, X. & Gan, B, Cell Cycle 15, 3471-3481 (2016)). Briefly, cells were seeded onto 96-well plates at a density of 2×10^4 per well. The next day, cells were treated with GPX4 or DHODH inhibitors for 4 hours. Subsequently, cells exposed to 10 μl CCK-8 reagent (100 μl medium per well) for 1 hour at 37° C., 5% CO2 in an incubator. The absorbance at a wavelength of 450 nm was determined using a FLUOstar Omega microplate reader (BMG Labtech).
Cell death was measured by propidium iodide (Roche) staining using a flow cytometer, as previously described (Dai, F., et al., Proc Natl Acad Sci USA 114, 3192-3197 (2017); Zhang, Y., et al., Cancer Res 80, 2243-2256 (2020)). For propidium iodide-staining, cells were seeded at a density of 50% confluence into 12-well plates. The next day, cells were treated with different reagents. To measure cell death, the cells were collected (including floating dead cells), stained with 5 μg/ml propidium iodide and the percentage of the propidium iodide-positive dead cell population was analyzed using the flow cytometer BD Accuri C6 (BD Biosciences) and an FL2 detector. A minimum of 10,000 single cells were analyzed per well and all experiments were carried out at least in triplicate.

HT-1080 cells = experiment: Metabolic tracer analysis of pyrimidine synthesis (amide-15N-glutamine); settings: Lip-1 10 μM
Experimental: Metabolomic analysis was performed as previously described (Liu, X., et al., Nat Cell Biol 22, 476-486 (2020)). Cells were seeded on 35 mm culture plates at a density sufficient to ensure approximately 70-80% confluence at the time of extraction. For metabolic tracer analysis of pyrimidine synthesis, HT-1080 cells were treated with RSL3 and/or Lip-1 for 2 hours and then were shifted to drug-free media containing amide-^15N-glutamine (this time point is defined as 0 hour). Metabolites were extracted at the indicated time points for subsequent analyses. Metabolites were extracted by rapidly aspirating the culture medium and then adding 0.6 mL of an 80% methanol: 20% water mixture at dry ice temperature. The plates were incubated on dry ice for 15 minutes before the cell material was scraped into eppendorf tubes pre-chilled on ice. The cell debris was pelleted by centrifugation at 13,000 RCF for 5 minutes at 4° C. and the supernatant was transferred to a fresh tube and stored on dry ice until analysis. […]
The complete platform consists of an Accela 1250 HPLC system, Accela Open Autosampler, MayLab Mistraswitch column oven and Exactive orbitrap mass spectrometer, controlled by the Xcalibur 3.0.63 software package. […] The data were analyzed using the MAVEN software suite57 with signal intensity determined as the Peak Area (Top). […]

DHODH KO HT-1080 cells = experiment: Mitochondrial lipid peroxidation (mito-BODIPY) in DHODH KO HT-1080 cells; settings: pretreatment 10 μM, 24 hours

Clc1cccc(CN=C2Nc3ccccc3NC23CCNCC3)c1 [liproxstatin-1]
rescue of lipid peroxidation and ferroptosis [1]: could be rescued
rescue of DHODH inhibition-induced cell death (GPX4^low NCI-H226 cells): largely rescued
rescue of RSL3-induced increase of 15N-UMP levels (HT-1080 cells): completely rescued
suppression of GPX4 inhibitor-induced mitochondrial lipid peroxidation (DHODH KO HT-1080 cells): could be suppressed
